Reference: paper PMC12289066, “Identification of glutathione transferase (GST P1) inhibitors via a high-throughput screening assay and implications as alternative treatment options for breast cancers” (PLOS One, 2025)
Structures can show the parent of a compound that is named as a salt. Where two headings read alike, the source gives them in different places.

What was measured:
[1] = molecular target: T1, GST P1-1 (Homo sapiens, UniProt P09211); experiment: High-throughput GST P1-1 inhibition assay (384-well screen, CDNB/GSH); assay type: biochemical; conditions: compound 10 μM; score 0 = negative control (DMSO), 1 = positive control (EA 50 μM); average of duplicate
T1 construct: purchased Sigma-Aldrich
Description: (§1) Each drug compound was added to the respective well at a volume of 80 nL of 10 mM stock solution in DMSO, yielding a final compound concentration of 10 μM and a final DMSO concentration of 0.1%. Each plate’s first and last two columns were used as negative (no compound added – 80 nL per well of DMSO) and positive (80 nL of EA added with a final concentration of 50 μM) controls, respectively. The Gyger Certus Flex dispenser was set up using a freshly prepared 1 mM of GSH and 20 nM of GST P1-1, pH 7.4, in one syringe and 8 mM CDNB solution in pure ethanol in the other syringe. Into each well 80 μL of GST-GSH solution was dispensed and incubated at 25°C for 20 minutes before the reaction was initiated by the addition of 4 μL of CDNB solution. The plates were incubated for 2 h in the dark at 25°C and then the absorbance was of each well recorded on a BioTek Synergy NEO HTS multimode plate reader (Agilent®) at a wavelength of 340 nm.
The z’factor was calculated for each plate according to Zhang et al.. The Z-factor is a dimensionless, simple statistical characteristic for each HTS assay. This provides a valuable tool for the comparison and assessment of the quality of assays, and can be utilized in assay optimization and validation. For each plate, the concentration of product was normalized by assigning a score of 0 (0%) to the negative control (average of maximal concentration of product measured in the presence of enzyme without any inhibitor) and a score of 1 (100%) was assigned to the positive control (average minimal concentration of product measured in the presence of enzyme with the reference inhibitor, i.e., EA). The experiment was performed in duplicate and the score for each drug compound was calculated as an average ± standard deviation. […] An internal laboratory information management system (LIMS) was used for basic data processing, management, visualization, and statistical hit validation.

[2] = molecular target: T1, GST P1-1; experiment: Determination of IC50 for GST P1-1 enzyme (dose-response / reconfirmation assay); assay type: biochemical
Description: as §1
The IC50 of the GST P1-1 enzyme was determined for the 80 drug compounds with the highest score in the GST P1-1 screening assay. The assay conditions were used for the screening assay and each drug compound was tested at 8 different concentrations (μM) starting at 30 µM final assay concentration with a half-log dilution and 2 replicates per concentration.

[3] = tested on: MCF-7 cells; experiment: MTT cytotoxicity assay, MCF-7; assay type: cell-based, human
Description: (§2) L929, MCF-7, and MDA-MB-231 cell lines were cultured in DMEM GlutaMAX media containing 10% heat-inactivated FBS and 1% (v/v) penicillin-streptomycin at 37°C and CO2 (5%). Cytotoxicity was determined using a 3-(4,5-dimethyl 2-thiazolyl)-2,5-diphenyl-2H-tetrazolium bromide (MTT) assay. 100 μL aliquots and approximately 50’000 cells/well were added to each well of flat-bottomed 96-well plates and incubated for 24 h in a humidified chamber at 37°C under saturated air with a 5% CO2 atmosphere. Stock solutions of 10 mM drug compounds were prepared in DMSO and were sequentially diluted with the cell culture buffer to give a final DMSO concentration of 0.5%. The solutions were added to the 96-well plates in 100 μL aliquots and 100 μL of buffer was added as a control to give a final drug compound concentration range of 0 − 100 μM. The plates were incubated for a further 72 h under the same conditions as before. MTT (10 μL, 5 mg/mL in Dulbecco’s phosphate-buffered saline) was added to each well and the plates were incubated for a further 3 h under the same conditions as before. The culture medium was aspirated from each well and the purple formazan crystals, formed by the mitochondrial dehydrogenase activity of vital cells, were dissolved in 100 μL DMSO. The absorbance of the resulting solutions was measured at 570 and 630 nm using a SpectraMax M5e multimode microplate reader and SoftMax Pro software, version 6.2.2. As the absorbance is directly proportional to the number of surviving cells, the percentage of surviving cells was calculated from the absorbance of wells relative to the control. The reported IC50 values are based on the mean from four independent experiments, each comprising three replicates per concentration.

[4] = tested on: MDA-MB-231 cells; experiment: MTT cytotoxicity assay, MDA-MB-231; assay type: cell-based, human
Description: as §2

[5] = tested on: L929 cells; experiment: MTT cytotoxicity assay, L929; assay type: cell-based, mouse; conditions: for selectivity towards the breast cancer cell lines: MCF-7 and MDA-MB-231 versus non-tumorigenic L929, 72 h MTT; for IC50: MTT, 72 h incubation, read-out: IC50 (average ± standard deviation) L929
Description: as §2, with “Cytotoxicity” for “L929, MCF-7, and MDA-MB-231 cell lines were cultured in DMEM GlutaMAX media containing 10% heat-inactivated FBS and 1% (v/v) penicillin-streptomycin at 37°C and CO2 (5%). Cytotoxicity”, “Stock solutions of 10 mM drug compounds were prepared in DMSO and were sequentially diluted with the cell culture buffer to give a final DMSO concentration of 0.5%. The solutions were added to the 96-well plates in 100 μL aliquots and 100 μL of buffer was added as a control to give a final drug compound concentration range of 0 − 100 μM.” left out

[6] = molecular target: T1, GST P1-1; experiment: Determination of inhibitor binding mechanism (kinetic GST P1-1 activity assay); assay type: biochemical; conditions: from Km and Vmax versus reaction without inhibitor
Description: The GST P1-1 concentration used in the assays was 0.02 U mL^-1.
1 mM GSH final concentration was used. The GST P1-1 was pre-incubated with the GSH for 20 minutes at room temperature before the addition of 12.5 μL of 4 mM solution of CDNB. The reaction rate was recorded against time using UV/VIS spectrophotometer (SpectraMax M5e from Molecular devices) at […].
The drug compounds’ inhibition mechanism was investigated using the kinetic GST P1-1 activity assay. Concentrations of CDNB ranged from 0–40 mM with the drug solution at a constant concentration of 5 μM. Experiments were performed in duplicate.
The Michaelis-Menten constant, Km, and […] Vmax were calculated using GraphPad Prism 9 software. To identify the type of inhibition the Michaelis-Menten equation was applied (Eq. 1): […]
where v0 is the initial velocity of the reaction, Vmax is the maximum velocity achieved by the reaction at maximum concentrations of substrate, [S] is the concentration of substrate, and Km is the substrate concentration at which the reaction velocity is half of the Vmax (Michaelis-Menten constant). The Michaelis-Menten equation predicts a hyperbolic relationship between initial velocity and substrate concentration, describing the kinetic behavior of enzymes. Evaluating the differences in Km and Vmax compared with the reaction without an inhibitor allows the competition type of an inhibitor to be identified. Competitive inhibitors present an increase in the Km and with Vmax unaffected. Non-competitive inhibitors present a […] Vmax.

[7] = Table 2, rounded values, read-out: IC50 GSTP1 enzymatic reaction
[8] = reconfirmation assay, Table S2, read-out: IC50 GSTP1
[9] = Homo sapiens, MCF7, MTT, 72 h incubation, read-out: IC50 (average ± standard deviation) MCF-7
[10] = Homo sapiens, MCF7, compound alone, read-out: Concentration IC50 isolated (MCF-7 cell line)
[11] = Homo sapiens, MDA-MB-231, MTT, 72 h incubation, read-out: IC50 (average ± standard deviation) MDA-MB-231
[12] = Homo sapiens, MDA-MB-231, compound alone, read-out: Concentration IC50 isolated (MDA-MB-231 cell line)
[13] = MTT, 72 h incubation, read-out: IC50 (average ± standard deviation) MCF-7
[14] = MTT, 72 h incubation, read-out: IC50 (average ± standard deviation) MDA-MB-231

T1 sequence (P09211 2-210 limits assumed): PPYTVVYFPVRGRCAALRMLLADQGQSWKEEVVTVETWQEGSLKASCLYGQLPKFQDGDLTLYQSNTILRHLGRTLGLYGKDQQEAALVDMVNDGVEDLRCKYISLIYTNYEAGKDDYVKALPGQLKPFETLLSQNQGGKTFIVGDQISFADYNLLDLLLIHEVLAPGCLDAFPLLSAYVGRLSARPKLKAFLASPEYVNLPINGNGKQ

Compound	Score [1]	IC50 [2, 7]	Hill Slope (dose-response curve) ([2]; reconfirmation assay)	IC50 [2, 8]	IC50 [3, 9]	IC50 [3, 10]	IC50 [4, 11]	IC50 [4, 12]	selectivity towards the breast cancer cell lines [5]	IC50 ([5]; Mus musculus, L929)	Inhibition mechanism [6]	IC50 [3, 13]	IC50 [4, 14]	IC50 [5]
CCc1ccc(/C=C2/SC(=S)NC2=O)cc1 [10058-F4]	0.731	2.8 µM	1.37	2.75 µM	14 ± 2 µM	14 µM	15 ± 4 µM	15 µM	highly selective	> 100 µM	Non-competitive			
C[C@H]1COC2=C1C(=O)C(=O)c1c2ccc2c1CCCC2(C)C [Cryptotanshinone 97.0%, Cryptotanshinone]	1.037	8.9 µM	0.85		0.29 ± 0.04 µM	0.29 µM	2.9 ± 0.3 µM	2.9 µM	reasonable degree of selectivity	4.4 ± 0.3 µM	Non-competitive			
O=C1C(=Cc2cccnc2)C(=O)c2ccccc21 [PRT 4165]	0.890	1.3 µM	1.2		59 ± 7 µM	59 µM	27 ± 6 µM	27 µM	reasonable degree of selectivity	> 100 µM	Non-competitive			
O=C(O)c1ccc(S(=O)(=O)N(Cc2ccc(OC(F)(F)F)cc2)c2ncc(C(F)(F)F)cc2Cl)cc1 [RQ-00203078]	0.697	3.1 µM	1.6									17 ± 2 µM	51 ± 6 µM	42 ± 6 µM
O=C1CC(=O)c2c(Cl)c(Cl)c(Cl)c(Cl)c21 [TCID]	1.094	0.9 µM	1.16									> 100 µM	> 100 µM	> 100 µM
N#Cc1c(-c2ccccc2)cc(-c2cc(Br)ccc2O)[nH]c1=O [TCS PIM-1 1]	0.813	2.2 µM	2.5	2.15 µM								74 ± 4 µM	> 100 µM	36 ± 3 µM
CC(C)N(CCC(=O)c1ccc2ccccc2c1)Cc1ccccc1 [ZM 39923 (hydrochloride)]	0.788	1.5 µM	1.56		4.3 ± 0.1 µM	4.3 µM	2.6 ± 0.1 µM	2.6 µM	reasonable degree of selectivity	8.2 ± 0.6 µM	Competitive			
O=C(O)c1cc(N2N=C(C(F)(F)F)/C(=C/c3ccc(-c4ccccc4)o3)C2=O)ccc1Cl [en460]	0.837	1.1 µM	1.4									10 ± 1 µM	19 ± 1 µM	18 ± 2 µM
O=C(O)c1c(Sc2ccccc2)c2cc(Cl)ccc2n1Cc1ccc(Cl)cc1 [nTZDpa]	0.909	0.95 µM	1.7									39 ± 2 µM	95 ± 4 µM	36 ± 3 µM
PSB 06126	0.962	0.3 µM	3.4	0.29 µM								45 ± 3 µM	> 100 µM	39 ± 4 µM
